Assay [1] relates to MRSA USA500. The assay is described as follows: MIC against MRSA USA500. The class given is cell-based, Staphylococcus aureus. The conditions noted are these: TSB, 37 °C, 18–20 hours; for MIC: Staphylococcus aureus, read-out: MIC, Staphylococcus aureus isolate USA500. Here is the method:
(§1) 96-well plates were seeded with 5 × 10^5 CFU/mL in a volume of 100 μL of tryptic soy broth (TSB) per well for Staphylococcus aureus assays. Compounds were dissolved in DMSO and serially diluted as 1:2 dilutions to give the final concentration ranging from 0.25 to 128 μg/mL per well. […] Plates were incubated at 37 °C for 18–20 hours and MIC was determined by reading OD625. For M.avium and M.abscessus, 7H9 broth media was used for determination of MICs. The final concentration was 5 × 10^5 CFU/mL in each well. The plate was incubated at 37 °C for 7–8 days and MICs were determined using a Tecan microplate reader (OD625) and resazurin reduction assay.

Assay [2] relates to Methicillin susceptible Staphylococcus aureus. Description: MIC against MSSA. The class given is cell-based. As to conditions: for MIC: MSSA. Here is the method: as §1
Assay [3] deals with MRSA USA700. The assay is described as follows: MIC against MRSA USA700. It counts as cell-based, Staphylococcus aureus. The conditions noted are these: for MIC: Staphylococcus aureus, read-out: MIC, Staphylococcus aureus isolate USA700. How it is done: as §1
In assay [4] the test system is MRSA USA400. Description: MIC against MRSA USA400. The conditions noted are these: TSB, 37 °C, 18–20 hours; for MIC: Staphylococcus aureus, read-out: MIC, Staphylococcus aureus isolate USA400. The class given is cell-based, Staphylococcus aureus. How it is done: as §1
In assay [5] the test system is MRSA USA200. Description: MIC against MRSA USA200. The class given is cell-based, Staphylococcus aureus. As to conditions: for MIC: Staphylococcus aureus, read-out: MIC, Staphylococcus aureus isolate USA200. How it is done:
as §1

The test system of assay [6] is Enterococcus faecalis. Description: MIC against Enterococcus faecalis. As to conditions: read-out: MIC, EF. The class given is cell-based.
For assay [7], the system named is MRSA (USA700) biofilms. Description: S. aureus biofilm assay. The class given is cell-based, Staphylococcus aureus. Here is the method:
Biofilm assays were performed using a method previously described with modification. A 96 well plate was precoated with 20% human plasma (Sigma) in 0.05 M carbonate buffer, pH 9.6 at 4 °C for 24 h. MRSA was cultured overnight in TSB containing 3% NaCl and 0.5% glucose. The overnight culture was diluted with TSB/NaCl/Glucose media until OD600 reached 0.05. After carefully removing the liquid from the 96 well plate, 200 μL of MRSA dilution was added to each well in triplicate. The plate was incubated at 37 °C for 24 h and carefully washed with PBS twice. MH broth (200 μL) containing a compound was added to each well in triplicate and incubated at 37 °C for 24 h. After washing with PBS twice, the biofilm was scraped in 100 μL of PBS and serially diluted and plated on TSA to determine CFU.

Assay [8] concerns MRSA USA100. Description: MIC against MRSA USA100. The class given is cell-based, Staphylococcus aureus. The conditions noted are these: Staphylococcus aureus; TSB, 37 °C, 18–20 hours; read-out: MIC, Staphylococcus aureus isolate USA100. Here is the method:
as §1

For assay [9], the system named is MRSA USA300. The assay is described as follows: MIC against MRSA USA300. As to conditions: Staphylococcus aureus; TSB, 37 °C, 18–20 hours; read-out: MIC, Staphylococcus aureus isolate USA300. It counts as cell-based, Staphylococcus aureus. How it is done: as §1
For assay [10], the system named is MRSA (USA200). Description: Colony morphology / small colony variant formation on TSA. The class given is cell-based, Staphylococcus aureus. As to conditions: USA200 on TSA, 37 °C, up to 96 h (3a 4–16 μg/mL), 72 h (7c, rifampin). Here is the method:
MRSA was streaked and then incubated on tryptic soy agar (TSA) containing 0, 2, 4, 8 or 16 μg/mL of inhibitor 3a or 4 μg/mL of 7C or 0.025 μg/mL of rifampin at 37 °C for 96 h. MK-4 (100 μg/mL) was supplemented in TSA containing 8 μg/mL of 3a for the rescue experiment.

The subject of assay [11] is MRSA USA800. The assay is described as follows: MIC against MRSA USA800. The class given is cell-based, Staphylococcus aureus. The conditions noted are these: Staphylococcus aureus; TSB, 37 °C, 18–20 hours; read-out: MIC, Staphylococcus aureus isolate USA800. Here is the method:
as §1

For assay [12], the system named is Pseudomonas aeruginosa. Description: MIC against Pseudomonas aeruginosa. It counts as cell-based. As to conditions: read-out: MIC, PA.

≈ marks a conversion by molar mass, not a printed value. Where two headings read alike, the source gives them in different places.

For the compound `COc1ccc2ccc(OCCCCCCCCN3CCc4ccccc4C3)cc2c1` [3d], in [1], the “MIC, Staphylococcus aureus isolate USA500” value came out at 128 µg/mL (≈ 307 µM). The “MIC, MSSA” value in assay [2] worked out at 32 µg/mL (≈ 76.6 µM). The “MIC, Staphylococcus aureus isolate USA700” value in [3] (TSB, 37 °C, 18–20 hours) stood at 32 µg/mL (≈ 76.6 µM). The “MIC, Staphylococcus aureus isolate USA400” value in assay [4] stood at 64 µg/mL (≈ 153 µM). Moreover, in [5] (TSB, 37 °C, 18–20 hours), the “MIC, Staphylococcus aureus isolate USA200” value is over 128 µg/mL.

In the case of `CN(C)c1ccc(O)c2c1C[C@H]1C[C@H]3[C@H](N(C)C)C(O)=C(C(N)=O)C(=O)[C@@]3(O)C(O)=C1C2=O` [Minomycin, Minocycline, reference compound], the MIC in assay [1] is under 0.06 µg/mL; in assay [6], 16 µg/mL (≈ 35 µM); in assay [4] it was 0.5 µg/mL (≈ 1.09 µM). The “MIC, Staphylococcus aureus isolate USA700” value in assay [3] (TSB, 37 °C, 18–20 hours) is under 0.06 µg/mL. The “MRSA biofilm growth compared to the positive control” value in assay [7] (USA700 biofilm, 0.5 and 0.03 mg/mL, 24 h) is on record as “significant decrease”. For the same compound, in assay [7] (USA 700 biofilm, 8300 × MIC), the “fold reduction of MRSA biofilm compared to the positive control” value is 10^6 fold.

As for `Brc1ccc(CCNCCCCCCCCOc2ccc3cc(Br)ccc3c2)cc1` [5c], the minimal inhibitory concentration (MIC) in assay [8] amounted to 32 µg/mL (≈ 60 µM); in [3] (TSB, 37 °C, 18–20 hours), 32 µg/mL (≈ 60 µM); in assay [6], 8 µg/mL (≈ 15 µM); in assay [4] it was 16 µg/mL (≈ 30 µM); in [5] (TSB, 37 °C, 18–20 hours), 8 µg/mL (≈ 15 µM); in assay [9], 32 µg/mL (≈ 60 µM).

As for `Clc1ccc(CCNCCCCCCCCOc2ccc3cc(Br)c(OCc4ccccc4)cc3c2)cc1` [6d], the MIC in assay [2] was 64 µg/mL (≈ 108 µM); in assay [3] (TSB, 37 °C, 18–20 hours), 64 µg/mL (≈ 108 µM); in assay [6], 16 µg/mL (≈ 26.9 µM); in assay [4], over 128 µg/mL; in [9], over 128 µg/mL.

For `c1cc2ccc(OCCCN3CCCCC3)cc2cc1OCCCN1CCCCC1` [7b], in [3], the MIC is over 128 µg/mL.

`CO[C@H]1/C=C/O[C@@]2(C)Oc3c(C)c(O)c4c(O)c(c(/C=N/N5CCN(C)CC5)c(O)c4c3C2=O)NC(=O)/C(C)=C\C=C\[C@H](C)[C@H](O)[C@@H](C)[C@@H](O)[C@@H](C)[C@H](OC(C)=O)[C@@H]1C` [rifampin, reference compound]: the “induction of small colony variants (SCV)” value in [10] is listed as “showed growth of SCV”.

Regarding `Fc1ccc(CCNCCCCCCCCOc2ccc3cc(Br)c(OCc4ccccc4)cc3c2)cc1` [6c], the MIC is over 128 µg/mL in assay [8]; over 128 µg/mL in assay [1]; over 128 µg/mL in assay [2]; over 128 µg/mL in [3] (TSB, 37 °C, 18–20 hours); over 128 µg/mL in assay [11]; over 128 µg/mL in assay [4].

As for `C=CCN(C)CCCCCCCCOc1ccc2cc(Br)c(OCc3ccccc3)cc2c1` [6a], the minimum inhibitory concentration (MIC) turned out to be 16 µg/mL (≈ 31.3 µM) in [2]; 16 µg/mL (≈ 31.3 µM) in assay [3] (TSB, 37 °C, 18–20 hours); 4 µg/mL (≈ 7.84 µM) in assay [6]; 64 µg/mL (≈ 125 µM) in [11]; 8 µg/mL (≈ 15.7 µM) in [4]; 8 µg/mL (≈ 15.7 µM) in assay [5] (TSB, 37 °C, 18–20 hours).

On to `C=CCN(C)CCCOC/C=C/COc1ccc2ccc(OC)cc2c1` [4a], for which the MIC in assay [3] and in assay [5] was 128 µg/mL (≈ 360 µM) each time.

In the case of `Clc1ccc(CCNCCCCCCCCOc2ccc3cc(Br)ccc3c2)cc1` [5b], the MIC was over 128 µg/mL in [8]; 64 µg/mL (≈ 131 µM) in assay [3] (TSB, 37 °C, 18–20 hours); 16 µg/mL (≈ 32.7 µM) in assay [6]; 64 µg/mL (≈ 131 µM) in [4]; 16 µg/mL (≈ 32.7 µM) in assay [5] (TSB, 37 °C, 18–20 hours); 32 µg/mL (≈ 65.5 µM) in assay [9].

As for `Fc1ccc(CCNCCCCCCCCOc2ccc3cc(Br)ccc3c2)cc1` [5a], the MIC turned out to be 16 µg/mL (≈ 33.9 µM) in assay [8]; 4 µg/mL (≈ 8.47 µM) in [3] (TSB, 37 °C, 18–20 hours); 2 µg/mL (≈ 4.23 µM) in assay [6]; 8 µg/mL (≈ 16.9 µM) in assay [4]; 4 µg/mL (≈ 8.47 µM) in assay [5] (TSB, 37 °C, 18–20 hours); 4 µg/mL (≈ 8.47 µM) in assay [9].

For the compound `CC(=O)NC[C@H]1CN(c2ccc(N3CCOCC3)c(F)c2)C(=O)O1` [Linezolid, reference compound], the MIC in assay [8] is 0.5 µg/mL (≈ 1.48 µM); in [1], 0.5 µg/mL (≈ 1.48 µM); in assay [2], 1 µg/mL (≈ 2.96 µM); in assay [12] it was 1 µg/mL (≈ 2.96 µM); in assay [3] (TSB, 37 °C, 18–20 hours), 1 µg/mL (≈ 2.96 µM); in [6], over 32 µg/mL. The MIC in assay [11] was determined as 0.5 µg/mL (≈ 1.48 µM); in assay [4], 1 µg/mL (≈ 2.96 µM); in [5] (TSB, 37 °C, 18–20 hours) it was 1 µg/mL (≈ 2.96 µM); in assay [9], 1 µg/mL (≈ 2.96 µM).

What is called MIC is the smallest concentration in the dilution series that meets the test's criterion for growth inhibition.

The record behind these values is article PMC5223195, “Novel long-chain compounds with both immunomodulatory and MenA inhibitory activities against Staphylococcus aureus and its biofilm” (Scientific Reports, 2017).
